Patent publication US8383615B2, “Azetidine 2-carboxamide derivatives which modulate the CB2 receptor” (Boehringer Ingelheim International GmbH, priority 2009, dated 2013)

Molecular target: T1, human CB2R (Homo sapiens, UniProt P34972)
T1 construct: host or cells: CHO cells
Assay: CB2R mediated modulation of cAMP synthesis
Assay type: cell-based
Conditions: CB2 EC50 (nM), CHO cells expressing human CB2R; inhibition of forskolin-stimulated cAMP synthesis; agonist
Description: B. CB2R Mediated Modulation of cAMP Synthesis:
Compounds of the invention were evaluated for their CB2 agonist or inverse agonistic activity in accordance with the following experimental method.
CHO cells expressing human CB2R (Euroscreen) were plated at a density of 5000 cells per well in 384 well plates and incubated overnight at 37° C. After removing the media, the cells were treated with test compounds diluted in stimulation buffer containing 1 mM IBMX, 0.25% BSA and 10 uM Forskolin. The assay was incubated for 30 minutes at 37° C. Cells were lysed and the cAMP concentration was measured using DiscoverX-XS cAMP kit, following the manufacturer's protocol. In this setting, agonists will decrease forskolin induced production of cAMP while inverse agonists will further increase forskolin induced production of cAMP. EC50 of agonists were calculated as follows. The maximal amount of cAMP produced by forskolin compared to the level of cAMP inhibited by 1 uM CP55940 is defined as 100%. The EC50 value of each test compound was determined as the concentration at which 50% of the forskolin-stimulated cAMP synthesis was inhibited. Data was analyzed using a four-parameter logistic model. (Model 205 of XLfit 4.0).

T1 sequence (P34972 whole entry): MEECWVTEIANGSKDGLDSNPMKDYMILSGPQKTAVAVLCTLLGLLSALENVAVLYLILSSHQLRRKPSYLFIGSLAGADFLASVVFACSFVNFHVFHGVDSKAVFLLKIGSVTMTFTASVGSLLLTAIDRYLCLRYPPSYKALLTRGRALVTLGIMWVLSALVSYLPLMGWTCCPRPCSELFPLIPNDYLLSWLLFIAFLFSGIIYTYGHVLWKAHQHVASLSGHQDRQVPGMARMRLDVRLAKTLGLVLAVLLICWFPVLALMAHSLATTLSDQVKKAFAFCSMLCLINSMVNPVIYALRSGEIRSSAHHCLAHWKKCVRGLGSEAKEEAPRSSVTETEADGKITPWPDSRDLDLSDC

Question: Which EC50 does the source give for CC(C)(C)c1cc(NC(=O)[C@@H]2CCN2S(=O)(=O)c2ccc(S(C)(=O)=O)cc2)no1 here?
Answer: 197 nM

Question: Which EC50 does the source give for O=C(Nc1nc(C2CCCCC2)cs1)[C@@H]1CCN1C1CCOCC1 here?
Answer: 56 nM

Question: How did the EC50 turn out when CCCS(=O)(=O)N1CC[C@H]1C(=O)Nc1cc(C(C)(C)C)on1 was run?
Answer: 157 nM

Question: How did the EC50 turn out when CC(C)(C)c1cc(NC(=O)[C@@H]2CCN2C2CCOCC2)sn1 was run?
Answer: 313 nM

Question: Which EC50 does the source give for COCC(C)(C)c1cc(NC(=O)[C@@H]2CCN2c2ccc(F)cc2)no1 here?
Answer: 7.7 nM

Question: Which EC50 does the source give for CC(C)(C)c1cc(NC(=O)[C@@H]2CCN2c2ncc(C(F)(F)F)cc2Cl)no1 [drawing 125] here?
Answer: 0.02 nM

Question: How did the EC50 turn out when COCC(C)(C)c1cc(NC(=O)[C@@H]2CCN2C2CCOCC2)on1 was run?
Answer: 75 nM

Question: With CC(C)(C)Cc1cc(NC(=O)[C@@H]2CCN2C2CCOCC2)on1 as the compound, how does the EC50 read?
Answer: 243 nM

Question: How did the EC50 turn out when O=C(Nc1cc(C(F)(F)F)no1)[C@@H]1CCN1c1ccc(Cl)cc1 was run?
Answer: 43 nM

Question: How did the EC50 turn out when O=C(Nc1nc(-c2ccc(F)c(F)c2)cs1)[C@@H]1CCN1C1CCOCC1 was run?
Answer: 203 nM

Question: CCc1sc(NC(=O)[C@@H]2CCN2C2CCOCC2)nc1-c1ccccc1 was tested. Which EC50 did it give?
Answer: 116 nM

Question: How did the EC50 turn out when CC(C)(C)c1cc(NC(=O)[C@@H]2CCN2Cc2ccc(F)c(F)c2)on1 was run?
Answer: 14 nM

Question: How did the EC50 turn out when CC(C)N1CC[C@H]1C(=O)Nc1cc(C(C)(C)C)no1 was run?
Answer: 26 nM

Question: COCC(C)(C)c1cc(NC(=O)[C@@H]2CCN2c2ccc(Cl)cc2)no1 was tested. Which EC50 did it give?
Answer: 12 nM

Question: With CC(C)(C)c1cc(NC(=O)[C@@H]2CCN2S(=O)(=O)c2ccc(S(C)(=O)=O)cc2)on1 as the compound, how does the EC50 read?
Answer: 357 nM

Question: Which EC50 does the source give for CC(C)(C)c1cc(NC(=O)[C@@H]2CC(=O)N2c2ccc(Cl)cc2)no1 here?
Answer: 50 nM

Question: For CC(C)(C)c1cc(NC(=O)[C@@H]2CCN2c2ccc(Cl)cc2)on1, which EC50 is on record?
Answer: 0.75 nM

Question: For CC(C)(C)c1cc(NC(=O)[C@@H]2CCN2c2ccc(Cl)cc2)no1, which EC50 is on record?
Answer: 1.7 nM

Question: Which EC50 does the source give for CC(C)(CO)c1cc(NC(=O)[C@@H]2CCN2c2ccc(F)cc2)on1 here?
Answer: 22 nM

Question: How did the EC50 turn out when CC(C)(C)c1coc(NC(=O)[C@@H]2CCN2C2CCOCC2)n1 was run?
Answer: 206 nM

Question: With O=C(Nc1nc2c(F)cccc2s1)[C@@H]1CCN1C1CCOCC1 as the compound, how does the EC50 read?
Answer: 153 nM

Question: For CCc1sc(NC(=O)[C@@H]2CCN2c2ccc(C(F)(F)F)cn2)nc1-c1ccccc1, which EC50 is on record?
Answer: 128 nM

Question: CC(C)(C)c1nsc(NC(=O)[C@@H]2CCN2C2CCOCC2)n1 was tested. Which EC50 did it give?
Answer: 471 nM

Question: How did the EC50 turn out when CCc1sc(NC(=O)[C@@H]2CCN2c2ncc(C(F)(F)F)cc2Cl)nc1-c1ccccc1 was run?
Answer: 2.7 nM

Question: With CC(C)(C)c1cc(NC(=O)[C@@H]2CCN2C2CCOCC2)no1 [drawing 132] as the compound, how does the EC50 read?
Answer: 18 nM

Question: Which EC50 does the source give for O=C(Nc1nc2cc(Cl)ccc2s1)[C@@H]1CCN1C1CCOCC1 here?
Answer: 86 nM

Question: How did the EC50 turn out when CC(C)(CO)c1cc(NC(=O)[C@@H]2CCN2c2ccc(Cl)cc2)on1 was run?
Answer: 18 nM

Question: Which EC50 does the source give for CC(C)(CO)c1cc(NC(=O)[C@@H]2CCN2c2ccc(C(F)(F)F)cn2)on1 here?
Answer: 18 nM

Question: For CCc1sc(NC(=O)[C@@H]2CCN2CC2CCOCC2)nc1-c1ccccc1, which EC50 is on record?
Answer: 4.1 nM

Question: For CC(C)(C)c1cc(NC(=O)[C@@H]2CCN2C2CCCC2)on1, which EC50 is on record?
Answer: 6.6 nM

Question: How did the EC50 turn out when CC(C)(C)c1cc(NC(=O)[C@@H]2CC(=O)N2c2ccc(Cl)cc2)on1 was run?
Answer: 17 nM

Question: How did the EC50 turn out when CC(C)(C)c1cc(NC(=O)[C@@H]2CCN2c2ccc(C(F)(F)F)cn2)on1 was run?
Answer: 0.67 nM

Question: For CC(C)(C)c1cc(NC(=O)[C@@H]2CCN2c2ncc(C(F)(F)F)cc2Cl)no1 [drawing 126], which EC50 is on record?
Answer: 0.05 nM

Question: Which EC50 does the source give for CC(C)(C)c1cc(NC(=O)[C@@H]2CCN2C2CCOCC2)no1 [drawing 128] here?
Answer: 8.8 nM

Question: For CC(C)(C)c1cc(NC(=O)[C@@H]2CCN2C2CCCCC2)on1, which EC50 is on record?
Answer: 0.08 nM

Question: For COCC(C)(C)c1cc(NC(=O)[C@@H]2CCN2c2ccc(F)cc2)on1, which EC50 is on record?
Answer: 5.6 nM

Question: Which EC50 does the source give for CC(C)(CO)c1cc(NC(=O)[C@@H]2CCN2c2ncc(C(F)(F)F)cc2Cl)on1 here?
Answer: 0.12 nM

Same assay, conditions: CHO cells expressing human CB2R; inhibition of forskolin-stimulated cAMP synthesis; agonist; read-out: CB2 EC50

Question: For O=C(Nc1nc(-c2ccccc2)cs1)[C@@H]1CCN1C1CCOCC1, which EC50 is on record?
Answer: 465 nM

Question: Which EC50 does the source give for O=C(Nc1ccc(C(F)(F)F)c(F)c1)[C@@H]1CCN1C1CCOCC1 here?
Answer: 371 nM

Question: How did the EC50 turn out when CC(C)(C)c1cc(NC(=O)[C@@H]2CCN2C(=O)C2CCC(F)(F)CC2)no1 was run?
Answer: 127 nM
